For assay [1], the target named is biotinylated KRAS G12C protein (GMP-PNP loaded) and GST-tagged Ras binding domain of c-RAF (Homo sapiens, UniProt P01116, C118S/C51S/C80L/G12C). The assay can be described thus: RAS:RAF-RBD binding assay (TR-FRET). The note with it: 30-minute incubation of compound with KRAS G12C before RAF-RBD; Table 4; read-out: IC50. On the technique in general: In TR-FRET formats the signal depends on donor and acceptor labels being close together.

For assay [2], the target named is T1, interaction between GMPPNP-bound recombinant K-Ras4B G12C mutant protein and cRAF RAS-binding domain (cRAF-RBD) (Homo sapiens, UniProt P01116, G12C).
T1 construct: His-tag (N)
The assay can be described thus: Inhibitory activity on interaction between KRAS G12C and cRAF (Alpha technology). An outline of the steps: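 Alpha signal measured 1.5 h after adding cRAF-RBD (aa 50-132) and detection reagents to GMPPNP-bound KRAS G12C (aa 1-169) pretreated 1 h at 25° C with compound (pH 7.5 buffer). 0% inhibition = DMSO, 100% = GDP-loaded KRAS; IC50 by curve fit.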

For another assay, the system named is MIA PaCa-2 cells. The assay can be described thus: Growth inhibition activity on KRAS-G12C mutant cell line (CellTiter-Glo 3D). It counts as cell-based, human. The note with it: MIA PaCa-2, 3-day culture with compound. An outline of the steps:
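IC50 (nM) derived from inhibition of luminescence (CellTiter-Glo 3D) relative to compound-free wells. Cells were seeded in U-bottom plates, grown 1 day, then exposed to compound for 3 days at 37 °C with 0.2% final DMSO.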
A general note: Cellular ATP, detected with luciferase, serves as a proxy for viable cell number.

Where [3] appears, read: IC50, GMPPNP-bound KRAS G12C incubated with compound 25° C. 1 hour, Table 2-1.
Setting [4] is: Homo sapiens, MIA PaCa-2, 72 h, Table 3-1.
Where [5] appears, read: IC50, GMPPNP-bound KRAS G12C incubated with compound 25° C. 1 hour, Table 2.

Like-named read-outs stand apart in the source and are kept apart here.

As to `Cc1nc2c3c(c(C(F)(F)F)cc2n1C)-c1cccn2c(C(=O)c4cc(F)c(NC(=O)/C=C/CNC5CCOC5)c(F)c4)cc(c12)CCO3` (single isomer, unassigned) [Example 269, (E)-N-(4-(9,10-dimethyl-7-(trifluoromethyl)-13,14-dihydro-9H-imidazo-[4″,5″:5′,6′]benzo[1′,2′: 2,3]oxocino[4,5,6-hi]-indolizine-2-carbonyl)-2,6-difluorophenyl)-4-((tetrahydrofuran-3-yl)-amino)but-2-enamide], in assay [1], the IC50 came to 9.82 nM.

As for `Cc1nc2c3c(c(C(F)(F)F)cc2n1C)-c1cccn2c(C(=O)c4cc(F)c(NC(=O)/C=C/CN[C@@H]5CCCC(F)(F)[C@@H]5O)c(F)c4)cc(c12)CCO3` [Example 274], in assay [1], the IC50 came out at 20.4 nM.

For `Cc1nc2c3c(c(C(F)(F)F)cc2n1C)-c1cccn2c(C(=O)c4cc(F)c(NC(=O)/C=C/CN5CC6(CCOC6)C5)c(F)c4)cc(c12)CCO3` (single isomer, unassigned) [Example 284], in assay [1], the IC50 stood at 40.4 nM.

For `Cc1nc2c3c(c(C(F)(F)F)cc2n1C)-c1cccn2c(C(=O)c4cc(F)c(NC(=O)/C=C/[C@@H]5C[C@@H](F)CN5)c(F)c4)cc(c12)CCO3` [Example 260, (2S,4R)-2-((E)-3-((4-(9,10-dimethyl-7-(tri-fluoromethyl)-13,14-dihydro-9H-imidazo-[4″,5″:5′,6′]benzo[1′,2′: 2,3]oxocino[4,5,6-hi]-indolizine-2-carbonyl)-2,6-difluorophenyl)-amino)-3-oxoprop-1-en-1-yl)-4-fluoropyrrolidin-1-ium 2,2,2-trifluoro-acetate], the IC50 in assay [1] stood at 11.7 nM.

`Cc1nc2c3c(c(C(F)(F)F)cc2n1C)-c1cccn2c(C(=O)c4cc(F)c(NC(=O)/C=C/CN5CC6(CCOCC6)C5)c(F)c4)cc(c12)CCO3` [Example 280, (E)-2-(4-((4-(9,10-dimeth-yl-7-(trifluoromethyl)-13,14-dihydro-9H-imidazo[4″,5″:5′,6′]benzo-[1′,2′:2,3]oxocino[4,5,6-hi]indolizine-2-carbonyl)-2,6-difluorophenyl)amino)-4-oxobut-2-en-1-yl)-7-oxa-2-azaspiro[3.5]nonan-2-ium 2,2,2-trifluoroacetate]: the half-inhibitory concentration (IC50) in assay [1] worked out at 37.7 nM.

“(2S)-1-((Z)-4-((4-(9,10- dimethyl-7-(trifluorometh- yl)-13,14-dihydro-9H- imidazo[4″,5″:5′,6′]benzo- [1′,2′:2,3loxocino[4,5,6- hi]indolizine-2-carbonyl)- 2,6-difluorophenyl)amino)- 3-fluoro-4-oxobut-2-en-1- yl)-2-(hydroxymethyl)- azetidin-1-ium2,2,2- trifluoroacetate [Example 262]”: in assay [1], the IC50 turned out to be 15.1 nM.

For the molecule `Cc1nc2c3c(c(C(F)(F)F)cc2n1C)-c1cccn2c(C(=O)c4cc(F)c(NC(=O)/C=C/CNCC5(F)CC5)c(F)c4)cc(c12)CCO3` [Example 276, (E)-4-((4-(9,10-dimethyl-7-(trifluoromethyl)-13,14-dihydro-9H-imidazo-[4″,5″:5′,6′]benzo[1′,2′: 2,3]oxocino[4,5,6-hi]-indolizine-2-carbonyl)-2,6-difluorophenyl)-amino)-N-((1-fluorocyclo-propyl)methyl)-4-oxobut-2-en-1-aminium 2,2,2-trifluoroacetate], in assay [1], the IC50 stood at 8.05 nM.

`Cc1nc2c3c(c(C(F)(F)F)cc2n1C)-c1cccn2c(C(=O)c4cc(F)c(NC(=O)/C=C/CNCC5(CO)CC5)c(F)c4)cc(c12)CCO3` [Example 281, (E)-4-((4-(9,10-dimethyl-7-(trifluoromethyl)-13,14-dihydro-9H-imidazo-[4″,5″:5′,6′]benzo[1′,2′: 2,3]oxocino[4,5,6-hi]-indolizine-2-carbonyl)-2,6-difluorophenyl)-amino)-N-((1-(hydroxy-methyl)cyclopropyl)meth-yl)-4-oxobut-2-en-1-aminium 2,2,2-trifluoro-acetate]: the IC50 in assay [1] was found to be 3.8 nM.

As to `Cc1nc2c3c(c(C(F)(F)F)cc2n1C)-c1cccn2c(C(=O)c4cc(F)c(NC(=O)/C=C/CNCC5(CO)COC5)c(F)c4)cc(c12)CCO3` [Example 279, (E)-4-((4-(9,10-dimethyl-7-(trifluoromethyl)-13,14-dihydro-9H-imidazo-[4″,5″:5′,6′]benzo[1′,2′: 2,3]oxocino[4,5,6-hi]-indolizine-2-carbonyl)-2,6-difluorophenyl)amino)-N-((3-(hydroxymethyl)oxetan-3-yl)methyl)-4-oxobut-2-en-1-aminium 2,2,2-trifluoroacetate], in assay [1], the IC50 came to 5.73 nM.

As for `COCc1nc2c3c(c(OC)cc2n1C)-c1cccn2c(C(=O)c4cc(F)c(NC(=O)/C=C/CNCC5(F)CC5)c(F)c4)cc(c12)CCN3C` (atropisomer, axis not shown) [Example 287, (E)-N-(2,6-difluoro-4-(7-methoxy-10-(methoxymethyl)-9,12-dimethyl-9,12,13,14-tetrahydroimidazo[4″,5″:5′,6′]benzo[1′,2′:2,3]azocino[4,5,6-hi]indolizine-2-carbonyl)phenyl)-4-(((1-fluorocyclopropyl)methyl)amino)but-2-enamide], the half-maximal inhibitory concentration (IC50) in assay [1] was 16.6 nM.

Take `Cc1nc2c3c(c(C(F)(F)F)cc2n1C)-c1cccn2c(C(=O)c4cc(F)c(NC(=O)/C=C/CN[C@H]5CCCC[C@H]5O)c(F)c4)cc(c12)CCO3` [Example 265]: in assay [1], the IC50 amounted to 12.3 nM.

`Cc1nc2c3c(c(C(F)(F)F)cc2n1C)-c1cccn2c(C(=O)c4cc(F)c(NC(=O)/C=C/CNC5(C)COC5)c(F)c4)cc(c12)CC(C)O3` (single isomer, unassigned) [Example 272, mono((E)-2-(3,5-difluoro-4-(4-((3-methyloxetan-3-yl)ammonio)but-2-en-amido)benzoyl)-9,10,13-trimethyl-7-(trifluoro-methyl)-13,14-dihydro-9H-imidazo[4″,5″:5′,6′]-benzo[1′,2′:2,3]oxocino-[4,5,6-hi]indolizin-11-ium) mono(2,2,2-trifluoroacetate)]: the IC50 in assay [1] amounted to 14.9 nM.

For the molecule `Cc1nc2c3c(c(C(F)(F)F)cc2n1C)-c1cccn2c(C(=O)c4cc(F)c(NC(=O)/C=C/CN[C@@H]5CCCC[C@@H]5O)c(F)c4)cc(c12)CCO3` [Example 264], the IC50 in assay [1] came out at 7.34 nM.

As for `CC1Cc2cc(C(=O)c3cc(F)c(NC(=O)/C=C/CN[C@H]4CCOC4)c(F)c3)n3cccc(c23)-c2c(C(F)(F)F)cc3c(ncn3C)c2O1` (single isomer, unassigned) [Example 271], the IC50 in assay [1] turned out to be 13.6 nM.

Take `CC(=O)C(C)(C)NC/C=C/C(=O)Nc1c(F)cc(C(=O)c2cn3c4c(cccc24)-c2c(C)cc4c(nc(C)n4C)c2N(C)CC3)cc1F` [Example 85, (E)-N-(2,6-difluoro-4-(6,8,9,11-tetramethyl-8,11,12,13-tetrahydro-imidazo[4″,5″:5′,6′]benzo-[1′,2′:5,6][1,4]diazocino-[7,8,1-hi]indole-2-carbon-yl)phenyl)-4-(2-methyl-3-oxobutan-2-ylamino)but-2-enamide]: the IC50 is 61 nM in assay [2] (setting [3]) and 30.9 nM with MIA PaCa-2 cells (setting [4]).

On to `CN1CCc2cc(C(=O)c3cc(F)c(NC(=O)/C=C/CN4CC[C@H]4CO)c(F)c3)n3cccc(c23)-c2c(C(F)(F)F)cc3c(ncn3C)c21` (single isomer, unassigned) [Example 199], for which the IC50 was 10.1 nM in assay [2] (GMPPNP-bound KRAS G12C incubated with compound 25° C. 1 hour, Table 2-1, read-out: IC50) and 3.67 nM in the assay with MIA PaCa-2 cells (setting [4]).

`CO[C@H]1CC[C@H](NC/C=C/C(=O)Nc2c(F)cc(C(=O)c3cn4c5c(cccc35)-c3c(C)cc5c(nc(C)n5C)c3OCC4)cc2F)CC1` (single isomer, unassigned) [Example 14-2, (E)-N-(2,6-difluoro-4-(6,8,9-trimethyl-12,13-dihydro-8H-imidazo[4″,5″:3′,4′]benzo[1′,2′:7,8][1,4]oxazocino[6,5,4-hi]indole-2-carbonyl)phenyl)-4-(((11,4r)-4-methoxycyclohexyl)amino)but-2-enamide]: the IC50 in assay [2] (setting [5]) is more than 6700 nM; in the assay with MIA PaCa-2 cells (Table 3), 3700 nM.

Regarding `Cc1cc2c(nc(C)n2C)c2c1-c1cccc3c(C(=O)c4cc(F)c(NC(=O)/C=C/CN[C@H]5C[C@@H]6CC[C@H]5O6)c(F)c4)cn(c13)CCN2C` (racemic) [Example 135], the IC50 stood at 11 nM in assay [2] (setting [3]) and 28.9 nM with MIA PaCa-2 cells (setting [4]).

On to `Cc1cc2c(nc(C)n2C)c2c1-c1cccc3c(C(=O)c4cc(F)c(NC(=O)/C=C/CNCC(=O)N(C)C)c(F)c4)cn(c13)CCN2C` [Example 94, (E)-N-(2,6-difluoro-4-(6,8,9,11-tetramethyl-8,11,12,13-tetrahydro-imidazo[4″,5″:5′,6′]-benzo[1′,2′:5,6][1,4]-diazocino[7,8,1-hi]indole-2-carbonyl)phenyl)-4-((2-(dimethylamino)-2-oxoethyl)amino)but-2-enamide], for which the IC50 in assay [2] (setting [3]) amounted to 71.6 nM; in the assay with MIA PaCa-2 cells (setting [4]), 73 nM.

As to `CO[C@H]1CC[C@H](NC/C=C/C(=O)Nc2c(F)cc(C(=O)c3cn4c5c(cccc35)-c3c(C(F)(F)F)cc5c(nc(C)n5C)c3N(C)CC4)cc2F)CC1` [Example 45, (E)-N-(2,6-difluoro-4-(8,9,11-trimethyl-6-(trifluoromethyl)-8,11,12,13-tetrahydroimidazo[4′ 5,6][1,4]diazocino[7,8,1-hi]indole-2-carbonyl)phenyl)-4-(((1,4r)-4-methoxycyclohexyl)amino)but-2-enamide], the IC50 in assay [2] (setting [5]) amounted to 21 nM; with MIA PaCa-2 cells (Homo sapiens, MIA PaCa-2, 72 h, Table 3), 5 nM.

The IC50 is the concentration at which inhibition is half-maximal.

The record behind these values is patent US20240262842A1, “SMALL MOLECULE INHIBITORS OF KRAS G12C MUTANT” (Merck Sharp & Dohme LLC, priority 2021, published 2024).
